# How the values were obtained:
# [1] = test system: M-109R (doxorubicin-resistant human breast carcinoma); assay: Cytotoxicity assay (methylene blue); tempamine alone or doxorubicin plus tempamine; format: cell-based
# Procedure: (§1) As described in Example 1, the cytotoxicity of tempamine was determined on three cell lines, MCF-7 (human breast adenocarcinoma), M-109S (doxorubicin-sensitive human breast carcinoma), and M-109R (doxorubicin-resistant human breast carcinoma). The effect of free tempamine on cell proliferation was determined by a methylene blue assay as described in Example 1B.
# (§2) In yet another aspect, the invention contemplates administration of tempamine in combination with chemotherapeutic agent. […] Doxorubicin was chosen as a model chemotherpeutic agent. The enhancement of doxorubicin cytotoxicity by tempamine was tested on three cell lines, as described in Example 1A. A cytotoxicity assay as described in Example 1B was used. Two of the cell lines, MCF-7 and M-109S, were doxorubicin-sensitive lines and one cell line, M-109R, was doxorubicin resistant. MCF-7 cells are more sensitive to tempamine (100 μM caused 75% growth inhibition), but are less sensitive to doxorubicin, than are M-109S cells.
# (§3) MCF-7 (human breast adenocarcinoma), M-109S (doxorubicin-sensitive human breast carcinoma), and M-109R (doxorubicin-resistant human breast carcinoma) were maintained in RPMI medium (Biological Industries, Beit HaEmek, Israel) supplemented with 10% fetal calf serum (FCS). The cell lines were maintained under standard culture conditions at 37° C. in a humidified 5% CO2 atmosphere.
# (§4) The effect of tempamine on cell proliferation was determined by the methylene blue assay (Horowitz, A. T., et al., Biochim BiophysActa. 1109:203, (1992)). Briefly, cells were seeded onto 96-well plates (MCF cells at a density of 6×10^3 cells per well, and M-109S and M-109R at a density of 1.5×10^3 cells per well) and allowed to grow for 24 hours prior to treatment with different concentrations of tempamine. After the addition of tempamine (5×10^−5 to 4×10^−4), the cells were incubated in RPMI +10% FCS for four days without change of medium. Then the cells were fixed with 2.5% glutaraldehyde, stained with methylene blue and assayed spectrophotometrically.
# [2] = test system: M-109S (doxorubicin-sensitive human breast carcinoma); assay: as above; format: cell-based; settings: Homo sapiens, read-out: IC50 (cytotoxicity)
# Procedure: as §1, §2, §3, §4
# [3] = Percent encapsulation of tempamine in liposomes (EPR); format: physicochemical; settings: 0.2 mM TMN
# Procedure: The amount of tempamine encapsulated in the liposomes was determined using EPR, as described in Example 3.
# EPR spectrometry was employed to detect tempamine concentration using a JES-RE3X EPR spectrometer (JEOL Co., Japan) (Fuchs, J., et al., Free Radic. Biol. Med. 22:967-976, (1997)). Samples were drawn by a syringe into a gas-permeable Teflon capillary tube of 0.81 mm i.d. and 0.05 mm wall thickness (Zeus Industrial Products, Raritan, N.J., USA). The capillary tube was inserted into a 2.5-mm-i.d. quartz tube open at both ends, and placed in the EPR cavity. EPR spectra were recorded with center field set at 329 mT, 100 kHz modulation frequency, 0.1 mT modulation amplitude, and nonsaturating microwave power. […]
# The amount of entrapped tempamine of liposomes prepared according to Example 2 was determined by the following procedure. First, the total tempamine in the post-loading liposome preparation (TMNmix) was measured. Then, the amount of tempamine in the post-loading liposome preparation in the presence of potassium ferricyanide, an EPR broadening agent that eliminates the signal of free (non-liposomal) tempamine, was measured. […] Then the total temparifine after releasing it from liposomes by nigericin (TMNnigencia) was measured. […]
# The percent encapsulation and the quenching factor were calculated as follows: […]
# [4] = Lipid bilayer/aqueous phase distribution (dialysis membrane); format: physicochemical; settings: no ammonium sulfate gradient
# Procedure: In another study, the partition of tempamine between the lipid bilayer and the aqueous phase was determined. The lipid bilayer/aqueous phase distribution was performed using a dialysis membrane separating the phases in 0.15 M NaCl (Samuni, A., et al., Free Radic Biol Med., 22:1165 (1997)). There was no predisposition of tempamine for the lipid bilayer over the 0.15 M NaCl aqueous phase and the distribution of tempamine was equal between the liposome preparation (10% egg phosphatidylcholine (EPC) (w/v)) and 0.15 M NaCl (data not shown).
# [5] = n-octanol/water partition coefficient (Kp); format: physicochemical; settings: ammonium sulfate 0 mM; TMN 20 μmole
# MCF-7 cancer cells = assay: Apoptosis detection by merocyanine-540 staining and flow cytometry; format: cell-based, human; settings: MCF-7, 1 mM tempamine, 24 hours; 14% without treatment
# Source text: In another study, the MCF-7 cell line was used to investigate the mechanism of growth inhibition by tempamine. Untreated cells and tempamine-treated cells (24-hours exposure) were contacted with merocyanine-540. Merocyanine-540 binds selectively to phophatidylserine, which appears at the external surface of the cell at the beginning of apoptosis and is therefore one of the apoptotic markers (Reid, S., et al., J. lmmnol. Methods 192:43 (1996)). After interaction with merocyanine-540, cells were analyzed by flow cytometry as described in the methods section below. […] After the 24 hour treatment period, the cells were trypsinized, stained with merocyanine-540 and analyzed by flow cytometry. […]
# Apoptosis was assessed by flow cytometry (FACScan). 1×10^6 cells were removed from culture, washed with PBS, and stained with merocyanine-540 (Reid, S., et al., J. Immunol. Methods 192:43 (1996). Briefly, the cell pellet was resuspended in 500 μl PBS. 2.5 μl of a 1 mg/ml solution of merocyanine-540 was added to the cells, incubated for 2 min at room temperature in the dark. The cells were washed, resuspended in 1 ml PBS, and run immediately on a fluorescence-activated cell-sorting flow cytometer (Vantage, Becton Dickinson, Rutherford, N.J., USA).
smiles,measurement,setting,value
"CC1(C)CC(N)CC(C)(C)N1[O] [tempamine, 2,2,6,6-tetramethylpiperidine-4-amino-1-oxyl]",IC50,"[1]; Homo sapiens, read-out: IC50 (cytotoxicity)",~700 µM
same,cell sensitivity to doxorubicin,"[1]; M-109R, addition of 200 μM tempamine",enhanced cell sensitivity to doxorubicin
same,IC50,[2],~700 µM
same,% Encapsulation ± S.D.,[3]; liposomes with NH4+ gradient,84.1 ± 8.4^3%
same,% Encapsulation ± S.D.,[3]; liposomes without NH4+ gradient,6 ± 0.6%
same,distribution between liposome preparation (10% EPC w/v) and 0.15 M NaCl,[4],equal
same,"n-octanol/aqueous phase (Kp), pH 4",[5],0.111
same,"n-octanol/aqueous phase (Kp), pH 10.6",[5],2.331
same,fluorescently labeled (apoptotic) cells,MCF-7 cancer cells,77%

# From patent US20040219201A1, “Tempamine compositions and methods of use” (priority 2001, published 2004)
